One assay has as its system SMN2 Protein. The assay can be described thus: SMN Protein Assay (MSD). It is filed as cell-based, human. Conditions: SMA patient fibroblasts, 48 hours, 0.6 nM to 2.5 µM. The method, boiled down:
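SMA patient fibroblasts at 7,000 cells/well treated 48 h with compound from 0.6 nM to 2.5 µM, then lysed. SMN protein in lysate quantified by Mesoscale Discovery immunoassay against an SMN standard curve (19.5 pg/ml–1 µg/ml), giving absolute amounts.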

Assay [1] has as its system SMN2 Splicing D7 (SMN Δ7 transcript). The assay can be described thus: SMN Quantitative Splicing Assay (qPCR). Format: cell-based, human. Conditions: 24 h, SMA patient fibroblasts (GM03813), 2.5 µM to 0.6 nM. As to the method:
Spinal muscular atrophy (SMA) patient fibroblasts (GM03813, Coriell) were plated in 96-well plates at 50,000 cells/well. […] Treated cells were lysed and cDNA synthesized using the Fast Advanced Cells-to-Ct kit (Thermofisher A35378) according to the manufacturer’s instructions. 2 µL of each cDNA were used in qPCR reactions. […] Reactions were run in a Quant Studio 6 qPCR instrument with default settings.

SMILES strings stand for the structures.

What is called EC50 is the concentration that produces a half-maximal response. Low readings indicate higher potency in that assay, high ones lower potency in that assay. The term IC50 denotes the concentration at which inhibition is half-maximal.

`CCn1ccc2cc(-c3ncc(N(C)C4CC5CCC(N5)[C@@H]4F)nn3)c(O)cc2c1=O` (stereo partly shown) [Compound 33] had an EC50 in the assay on SMN2 Protein of 16 to 50 nM. The compound also showed an IC50 in assay [1] (Homo sapiens, Fibroblast) of 101 to 500 nM.

For the compound `CN(c1cnc(-c2cc3ncn(C)c(=O)c3cc2O)nn1)C1CC2COCC(C1)N2` (stereo not shown) [Compound 148], the EC50 in the assay with SMN2 Protein was in the range of 0.01 to 15 nM. Further, in assay [1] (Homo sapiens, Fibroblast), the IC50 was in the range of 0.01 to 15 nM.

`CN(c1cnc(-c2cc3cnn(C)c(=O)c3cc2O)nn1)[C@H]1C[C@]2(C)CCC(N2)[C@H]1F` [Compound 185] registered an EC50 with SMN2 Protein of 0.01 to 15 nM. The IC50 in assay [1] (Homo sapiens, Fibroblast) is 0.01 to 15 nM.

Turning to `CCn1ccc2cc(-c3ncc(N(C)[C@H]4C[C@@H]5CCCC(N5)[C@H]4F)nn3)c(O)cc2c1=O` [Compound 121], the EC50 in the assay with SMN2 Protein is 0.01 to 15 nM. In addition, the IC50 in assay [1] (Homo sapiens, Fibroblast) lay within 0.01 to 15 nM.

As for `Cc1cc2cc(O)c(-c3ncc(N(C)[C@@H]4CC5CCC[C@H](N5)[C@@H]4F)nn3)cc2cn1` [Compound 77], in the assay with SMN2 Protein, the EC50 is 16 to 50 nM. Besides, the IC50 in assay [1] (Homo sapiens, Fibroblast) fell in the range of 16 to 50 nM.

The compound `CN(c1cnc(-c2cc3occc(=O)c3cc2O)nn1)[C@@H]1CC2COC[C@H](N2)[C@@H]1F` [Compound 67] displayed an EC50 in the assay on SMN2 Protein of 51 to 100 nM. The compound also displayed an IC50 in assay [1] (Homo sapiens, Fibroblast) of 101 to 500 nM.

Regarding `Cc1cc2cc(-c3ncc(N(C)[C@H]4CC5CCC(N5)[C@H]4F)nn3)c(O)cc2cn1` (stereo partly shown) [Compound 44], the EC50 with SMN2 Protein lay in the range of 0.01 to 15 nM. Further, in assay [1] (Homo sapiens, Fibroblast), the IC50 lay within 0.01 to 15 nM.

`Cc1cc(=O)c2cc(-c3ncc(N(C)[C@H]4C[C@@H]5CCC[C@@H](N5)[C@H]4F)nn3)c(O)cc2o1` [Compound 112]: the EC50 with SMN2 Protein was 16 to 50 nM. The IC50 in assay [1] (Homo sapiens, Fibroblast) was in the range of 16 to 50 nM.

`Cc1nc2cc(O)c(-c3ncc(N(C)[C@H]4C[C@]5(C)CC[C@@](C)(N5)[C@H]4F)nn3)cc2nc1C` [Compound 87] yielded an EC50 with SMN2 Protein of 0.01 to 15 nM. Further, the IC50 in assay [1] (Homo sapiens, Fibroblast) lay within 0.01 to 15 nM.

With `[2H]C([2H])([2H])C([2H])([2H])n1cc(F)c2cc(-c3ncc(N(C)[C@H]4CC5CCC(N5)[C@H]4F)nn3)c(O)cc2c1=O` (stereo partly shown) [Compound 208], the EC50 in the assay on SMN2 Protein lay in the range of 0.01 to 15 nM. The same compound registered an IC50 in assay [1] (Homo sapiens, Fibroblast) of 0.01 to 15 nM.

With `CN(c1cnc(-c2cc3ncn(C)c(=O)c3cc2O)nn1)[C@@H]1C[C@H]2CCCC(N2)[C@@H]1F` [Compound 124], the EC50 in the assay on SMN2 Protein fell in the range of 16 to 50 nM. The same compound yielded an IC50 in assay [1] (Homo sapiens, Fibroblast) of 16 to 50 nM.

For `CCn1cc(F)c2cc(-c3ncc(N(C)[C@H]4CC5CC(F)(F)C(C4)N5)nn3)c(O)cc2c1=O` (stereo partly shown) [Compound 212], in the assay on SMN2 Protein, the EC50 fell in the range of 501 to 10000 nM. Also, the IC50 in assay [1] (Homo sapiens, Fibroblast) was 51 to 100 nM.

In the assay with SMN2 Protein, `CN(c1cnc(-c2cc3ccn(C)c(=O)c3cc2O)nn1)[C@@H]1C[C@@]2(C)CC[C@H](N2)[C@@H]1F` [Compound 174] came in with an EC50 of 0.01 to 15 nM. Besides, the IC50 in assay [1] (Homo sapiens, Fibroblast) lay within 0.01 to 15 nM.

With `CCn1cnc2cc(-c3ncc(N(C)[C@H]4CC5CCC[C@@H](N5)[C@H]4F)nn3)c(O)cc2c1=O` [Compound 125], the EC50 in the assay with SMN2 Protein is 16 to 50 nM. Further, in assay [1] (Homo sapiens, Fibroblast), the IC50 was 0.01 to 15 nM.

In the case of `Cc1coc2cc(-c3ncc(N(C)[C@H]4CC5CCCC(N5)[C@H]4F)nn3)c(O)cc2c1=O` (stereo partly shown) [Compound 102], in the assay on SMN2 Protein, the EC50 was 0.01 to 15 nM. In assay [1] (Homo sapiens, Fibroblast), this compound yielded an IC50 of 0.01 to 15 nM.

As to `CN(c1cnc(-c2cc3c(=O)n(C)cnc3cc2O)nn1)C1CC2CCC(N2)[C@@H]1F` (stereo partly shown) [Compound 140], the EC50 in the assay with SMN2 Protein was 16 to 50 nM. This compound showed an IC50 in assay [1] (Homo sapiens, Fibroblast) of 101 to 500 nM.

On to `CN(c1cnc(-c2cc3ncn(C)c(=O)c3cc2O)nn1)[C@@H]1CC2CCC(N2)[C@@H]1F` (single isomer, unassigned) [Compound 3A], for which, in the assay with SMN2 Protein, the EC50 is 16 to 50 nM. Further, in assay [1] (Homo sapiens, Fibroblast), the IC50 is 16 to 50 nM.

Compound `CN(c1cnc(-c2cc3nccnc3cc2O)nn1)[C@@H]1CC2CC[C@H](N2)[C@@H]1F` [Compound 57] yielded a half-maximal effective concentration (EC50) in the assay with SMN2 Protein of 16 to 50 nM. This compound displayed an IC50 in assay [1] of 101 to 500 nM.

In turn, `CN(c1cnc(-c2cc3cnn(C)c(=O)c3cc2O)nn1)[C@H]1CC2CCC(N2)[C@H]1F` (single isomer, unassigned) [Compound 2B] displayed an EC50 in the assay on SMN2 Protein of 0.01 to 15 nM. In assay [1] (Homo sapiens, Fibroblast), this compound registered an IC50 of 0.01 to 15 nM.

In the assay with SMN2 Protein, `CN(c1cnc(-c2cc3occc(=O)c3cc2O)nn1)[C@@H]1CC2COC[C@@H](C1)N2` [Compound 69] registered an EC50 of 0.01 to 15 nM. For the same compound, in assay [1] (Homo sapiens, Fibroblast), the IC50 was in the range of 0.01 to 15 nM.

The values above are taken from patent publication US20230331718A1, “COMPOSITIONS FOR MODULATING SPLICING” (Skyhawk Therapeutics, Inc., priority 2020, published 2023).
